The source of these data is PubChem BioAssay (NCI).

Each structure is given as a SMILES string. Several values for one entry are separate records, joined by “and”; a condition that tells them apart may be missing. Identical values can stand only once.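 In this assay, cells in 96-well plates receive the compound at five concentrations for 48 hours. Endpoints are linearly interpolated between the surrounding concentrations. GI50: concentration for 50% inhibition of growth. At the TGI there is no net growth.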

Among the test systems are EKVX NSCLC; MOLT-4 leukemia; OVCAR-8 ovarian; A498 renal; MALME-3M melanoma; SF-539 CNS; SW-620 colon; SNB-19 CNS; ACHN renal; HCT-116 colon.
What all share (experiment): DTP human tumour cell line panel, 48 h

In general, GI50 refers to the concentration at which growth is held to half of that of the control. Broadly, the TGI is the concentration at which net growth stops. Read a high TGI as less potent growth arrest. For `Nc1ncnc2c1c(-c1cccc(OCc3ccccc3)c1)cn2C1CC(CN2CCC2)C1` (stereo not given), the GI50 in the experiment on EKVX NSCLC was 7.88 µM; with MOLT-4 leukemia it was 2.82 µM and 2.56 µM; in the experiment on OVCAR-8 ovarian, 5.92 µM and 8.46 µM; with A498 renal it was 1.74 µM and 1.24 µM; in the experiment with MALME-3M melanoma, 0.433 µM and 1.33 µM; with SF-539 CNS it was 1.65 µM and 1.95 µM. In addition, the GI50 is 1.29 µM and 1.56 µM with SW-620 colon; 6.37 µM and 7.05 µM in the experiment on SNB-19 CNS; 3.87 µM and 7.43 µM with ACHN renal; 1.85 µM and 2.58 µM in the experiment on HCT-116 colon. Besides, the TGI in the experiment with EKVX NSCLC is above 10 µM; in the experiment on MOLT-4 leukemia, 8.59 µM and > 10 µM; in the experiment on OVCAR-8 ovarian, 20 µM and > 10 µM; in the experiment on A498 renal, 5.59 µM and 6.85 µM; in the experiment on MALME-3M melanoma, 1.96 µM and 3.04 µM; in the experiment on SF-539 CNS, 3.18 µM and 5.16 µM. The TGI is 6.47 µM and > 10 µM in the experiment with SW-620 colon; 20.5 µM and > 10 µM with SNB-19 CNS; 15.3 µM and > 10 µM with ACHN renal; 11.5 µM and > 10 µM in the experiment on HCT-116 colon.

On to `CC1(C)OB(O)OC1(C)C`, for which the TGI in the experiment on EKVX NSCLC, in the experiment with MOLT-4 leukemia, in the experiment with OVCAR-8 ovarian, with A498 renal, in the experiment on MALME-3M melanoma and in the experiment on SF-539 CNS was above 100 µM in each case. Further, the TGI in the experiment with SW-620 colon, with SNB-19 CNS, in the experiment with ACHN renal and with HCT-116 colon was above 100 µM in each case.

In the case of `CN1C(=O)[C@@H](NC(=O)[C@H](CCC(F)(F)F)[C@H](CCC(F)(F)F)C(N)=O)N=C(c2ccccc2)c2ccccc21`, the GI50 in the experiment on EKVX NSCLC is 68 µM; in the experiment on MOLT-4 leukemia it was 27.3 µM; in the experiment on OVCAR-8 ovarian, above 100 µM; in the experiment on A498 renal it was 47.7 µM; in the experiment with MALME-3M melanoma, above 100 µM; in the experiment with SF-539 CNS it was 50.3 µM. For the same compound, the GI50 is above 100 µM in the experiment with SW-620 colon, above 100 µM in the experiment on SNB-19 CNS, 45 µM in the experiment with ACHN renal and 56.7 µM in the experiment on HCT-116 colon. In addition, the TGI with EKVX NSCLC, with MOLT-4 leukemia, in the experiment on OVCAR-8 ovarian, in the experiment on A498 renal, with MALME-3M melanoma and in the experiment with SF-539 CNS was above 100 µM in each case. Moreover, the TGI in the experiment on SW-620 colon, with SNB-19 CNS, with ACHN renal and in the experiment on HCT-116 colon was above 100 µM in each case.

As for `C=C1c2[nH]c3ccccc3c2C2C(CC)C1CCN2C` (stereo not given), the TGI is above 100 µM with EKVX NSCLC; above 100 µM in the experiment on MOLT-4 leukemia; above 100 µM in the experiment on OVCAR-8 ovarian; 70 µM in the experiment with A498 renal; 56.5 µM with MALME-3M melanoma; above 100 µM in the experiment on SF-539 CNS. Also, the TGI in the experiment on SW-620 colon, in the experiment on SNB-19 CNS, in the experiment on ACHN renal and in the experiment on HCT-116 colon was above 100 µM in each case.

For `COC1=CC(=O)C(OC)=C(OC)C1=O`, the GI50 in the experiment on EKVX NSCLC was 15.9 µM; with MOLT-4 leukemia it was 2.07 µM; in the experiment with OVCAR-8 ovarian it was 15.5 µM; with A498 renal, above 100 µM; in the experiment with MALME-3M melanoma, 18 µM; in the experiment on SF-539 CNS, 16.5 µM. Further, the GI50 in the experiment on SW-620 colon is 18 µM; in the experiment on SNB-19 CNS, 21.5 µM; with ACHN renal, 12.8 µM; in the experiment on HCT-116 colon, 16 µM. Moreover, the TGI with EKVX NSCLC is 29.8 µM; in the experiment on MOLT-4 leukemia, 5.5 µM; with OVCAR-8 ovarian it was 30.7 µM; with A498 renal, above 100 µM; in the experiment on MALME-3M melanoma, 35.6 µM; with SF-539 CNS, 30.9 µM. The TGI turned out to be 35.1 µM with SW-620 colon, 52.8 µM with SNB-19 CNS, 25.3 µM in the experiment with ACHN renal and 29.6 µM with HCT-116 colon.

For `CC(=O)O[C@@H]1[C@@H](O)C2=C3[C@]4(C)[C@@H]1C(C)(C)C(=O)C[C@@H]4[C@]3(O)[C@H](OC(C)=O)[C@@]1(C[C@@H]1C)C2=O`, the TGI with EKVX NSCLC stood at 40.7 µM; in the experiment on MOLT-4 leukemia, 72.4 µM; with OVCAR-8 ovarian it was 34.2 µM; in the experiment on A498 renal, 45.8 µM; in the experiment with MALME-3M melanoma it was 29.3 µM; in the experiment on SF-539 CNS, 56.1 µM. Further, the TGI was 42.8 µM in the experiment on SW-620 colon, 61.5 µM in the experiment on SNB-19 CNS, 43.4 µM in the experiment on ACHN renal and 30.8 µM with HCT-116 colon.

Turning to `CCN(CC)c1ccc2c(c1)Oc1nc(N)c(C#N)c(N)c1C2Sc1ccc(OC)cc1` (stereo not given), the GI50 is 0.479 µM in the experiment on EKVX NSCLC; 2.37 µM with MOLT-4 leukemia; 1.87 µM in the experiment with OVCAR-8 ovarian; 2.29 µM in the experiment on A498 renal; 1.82 µM with MALME-3M melanoma; 1.64 µM with SF-539 CNS. Besides, the GI50 in the experiment with SW-620 colon was 1.9 µM; with SNB-19 CNS, 1.8 µM; with ACHN renal, 1.59 µM; in the experiment with HCT-116 colon, 1.65 µM. The TGI with EKVX NSCLC is 1.97 µM; in the experiment on MOLT-4 leukemia it was 6.21 µM; in the experiment on OVCAR-8 ovarian, 3.76 µM; in the experiment with A498 renal, 4.14 µM; in the experiment on MALME-3M melanoma, 3.45 µM; with SF-539 CNS it was 3.04 µM. Moreover, the TGI in the experiment on SW-620 colon was determined as 3.62 µM; with SNB-19 CNS, 3.26 µM; in the experiment with ACHN renal, 2.94 µM; in the experiment on HCT-116 colon it was 3.12 µM.

In the case of `COC(=O)NC1(NC(=O)OC)NC(=O)c2cc(OC)c(OC)c(OC)c2N1`, the TGI in the experiment on EKVX NSCLC, in the experiment on MOLT-4 leukemia, with OVCAR-8 ovarian, in the experiment on A498 renal, in the experiment with MALME-3M melanoma and in the experiment on SF-539 CNS was above 100 µM throughout. Moreover, the TGI in the experiment with SW-620 colon, in the experiment on SNB-19 CNS, in the experiment on ACHN renal and in the experiment with HCT-116 colon was above 100 µM throughout.

For the compound `CC(=O)[O-].[Mn+3].[O-]c1ccccc1C=NCCN=Cc1ccccc1[O-]`, the GI50 in the experiment on EKVX NSCLC is above 100 µM; with MOLT-4 leukemia, 25.7 µM; with OVCAR-8 ovarian, above 100 µM; in the experiment on A498 renal, above 100 µM; with MALME-3M melanoma it was above 100 µM; with SF-539 CNS, above 100 µM. Further, the GI50 with SW-620 colon is above 100 µM; with SNB-19 CNS, above 100 µM; with ACHN renal, above 100 µM; with HCT-116 colon it was 95.5 µM. For the same compound, the TGI with EKVX NSCLC, with MOLT-4 leukemia, in the experiment with OVCAR-8 ovarian, in the experiment with A498 renal, in the experiment with MALME-3M melanoma and in the experiment on SF-539 CNS was above 100 µM in each case. Further, the TGI in the experiment with SW-620 colon, in the experiment with SNB-19 CNS, with ACHN renal and with HCT-116 colon was above 100 µM throughout.

With `CC1=C(C(=O)Nc2cc(=O)n(C)c(=O)n2C)C(c2ccc([N+](=O)[O-])cc2)C(C(=O)Nc2cc(=O)n(C)c(=O)n2C)=C(C)N1`, the TGI in the experiment with EKVX NSCLC, in the experiment on MOLT-4 leukemia, in the experiment on OVCAR-8 ovarian, with A498 renal, with MALME-3M melanoma and in the experiment on SF-539 CNS was above 100 µM throughout. Also, the TGI in the experiment on SW-620 colon, in the experiment on SNB-19 CNS, with ACHN renal and with HCT-116 colon was above 100 µM in each case.
